By pIC50 is commonly meant −log10 of the IC50, conventionally taken in molar units.

This assay concerns the target T1, Flag/GST-tagged recombinant human B-Raf (Homo sapiens, UniProt P15056).
T1 construct: Flag; GST; made in house; host or cells: Sf9 insect cells (B-Raf); E. coli (MEK1-GST)
The assay can be described thus: B-Raf kinase assay (phosphorylation of GST-MEK1, phospho-MEK1 antibody/Europium detection). It is filed as biochemical. The conditions noted are these: B-Raf IC50 Data for compounds of Formula A; read-out: Mean IC50. The method, boiled down:
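Percent inhibition was calculated at each compound concentration from Europium time-resolved fluorescence (anti-phospho-MEK1, then Eu-conjugated anti-rabbit) after GST capture. The upstream kinase step used GST-MEK1 with 0.2 nM B-Raf for 45 min at room temperature in MOPS buffer, pH 7.2. It was started with a cocktail of 200 μM ATP and 40 mM MgCl2.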

Structures are written as SMILES. pIC50: −log10 of the molar value.

T1 sequence (P15056 whole entry): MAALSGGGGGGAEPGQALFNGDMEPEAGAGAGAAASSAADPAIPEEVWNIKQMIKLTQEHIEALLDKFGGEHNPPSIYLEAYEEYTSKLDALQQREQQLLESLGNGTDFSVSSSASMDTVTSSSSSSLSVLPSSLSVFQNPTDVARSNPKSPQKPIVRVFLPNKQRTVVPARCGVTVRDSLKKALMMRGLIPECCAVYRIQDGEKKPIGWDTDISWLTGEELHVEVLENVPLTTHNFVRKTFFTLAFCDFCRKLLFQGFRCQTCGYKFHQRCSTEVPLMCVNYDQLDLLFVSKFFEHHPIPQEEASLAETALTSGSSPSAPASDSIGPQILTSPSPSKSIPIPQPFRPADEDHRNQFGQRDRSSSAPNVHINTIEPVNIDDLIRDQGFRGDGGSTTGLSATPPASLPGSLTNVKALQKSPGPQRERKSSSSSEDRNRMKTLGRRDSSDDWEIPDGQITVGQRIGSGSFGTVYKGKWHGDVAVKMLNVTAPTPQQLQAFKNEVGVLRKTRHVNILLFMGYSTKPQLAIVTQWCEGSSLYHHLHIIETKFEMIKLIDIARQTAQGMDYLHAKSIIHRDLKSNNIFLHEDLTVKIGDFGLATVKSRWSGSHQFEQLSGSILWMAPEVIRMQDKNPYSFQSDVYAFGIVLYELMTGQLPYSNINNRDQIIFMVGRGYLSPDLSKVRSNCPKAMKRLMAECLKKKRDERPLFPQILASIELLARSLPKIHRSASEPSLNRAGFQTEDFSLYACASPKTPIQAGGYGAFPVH

As to `CN1C[C@@H]2C[C@H]1CN2c1cc(F)c(-c2ccnc3c(-c4ccc(F)c5[nH]ncc45)c(-c4ccncc4)nn23)c(F)c1` [Example 110, 7-{2,6-Difluoro-4-[(1S,4S)-5-methyl-2,5-diazabicyclo[2.2.1]hept-2-yl]phenyl}-3-(7-fluoro-1H-indazol-4-yl)-2-pyridin-4-yl pyrazolo[1,5-a]pyrimidine], the pIC50 was more than 10.00.

`OCCN1C2CCC1CC(c1ccnc3c(-c4cccc5[nH]ncc45)c(-c4ccncc4)nn13)C2` (stereo not drawn) [Example 112, 2-{3-[3-(1H-indazol-4-yl)-2-pyridin-4-ylpyrazolo[1,5-a]pyrimidin-7-yl]-8-azabicyclo[3.2.1]oct-8-yl}ethanol]: the pIC50 was 7.64.

As to `CC(C)N1C2CCC1CC(c1ccnc3c(-c4cccc5[nH]ncc45)c(-c4ccncc4)nn13)C2` (stereo not drawn) [Example 113, 3-(1H-indazol-4-yl)-7-(8-isopropyl-8-azabicyclo[3.2.1]oct-3-yl)-2-pyridin-4-ylpyrazolo[1,5-a]pyrimidine], the pIC50 was 7.17.

In the case of `NC(=O)N1C2CCC1CC(c1ccnc3c(-c4cccc5[nH]ncc45)c(-c4ccncc4)nn13)C2` (stereo not drawn) [Example 115, 3-[3-(1H-indazol-4-yl)-2-pyridin-4-ylpyrazolo[1,5-a]pyrimidin-7-yl]-8-azabicyclo[3.2.1]octane-8-carboxamide], the pIC50 is 8.04.

Consider `CN(C)CC(=O)N1C2CCC1CC(c1ccnc3c(-c4cccc5[nH]ncc45)c(-c4ccncc4)nn13)C2` (stereo not drawn) [Example 116, 2-{3-[3-(1H-indazol-4-yl)-2-pyridin-4-ylpyrazolo[1,5-a]pyrimidin-7-yl]-8-azabicyclo[3.2.1]oct-8-yl}-N,N-dimethyl-2-oxoethanamine], for which the pIC50 was 7.21.

As to `N#CCN1C2CCC1CC(c1ccnc3c(-c4cccc5[nH]ncc45)c(-c4ccncc4)nn13)C2` (stereo not drawn) [Example 117, {3-[3-(1H-indazol-4-yl)-2-pyridin-4-ylpyrazolo[1,5-a]pyrimidin-7-yl]-8-azabicyclo[3.2.1]oct-8-yl}acetonitrile], the pIC50 was 8.55.

`CCNC(=O)N1C2CCC1CC(c1ccnc3c(-c4cccc5[nH]ncc45)c(-c4ccncc4)nn13)C2` (stereo not drawn) [Example 118, N-ethyl-3-[3-(1H-indazol-4-yl)-2-pyridin-4-ylpyrazolo[1,5-a]pyrimidin-7-yl]-8-azabicyclo[3.2.1]octane-8-carboxamide]: the pIC50 was 8.17.

In the case of `CC(=O)N1C2CCC1CC(c1ccnc3c(-c4cccc5[nH]ncc45)c(-c4ccncc4)nn13)C2` (stereo not drawn) [Example 119, 7-(8-acetyl-8-azabicyclo[3.2.1]oct-3-yl)-3-(1H-indazol-4-yl)-2-pyridin-4-ylpyrazolo[1,5-a]pyrimidine], the pIC50 was 8.04.

For `CN(C)C(=O)N1C2CCC1CC(c1ccnc3c(-c4cccc5[nH]ncc45)c(-c4ccncc4)nn13)C2` (stereo not drawn) [Example 120, 3-[3-(1H-indazol-4-yl)-2-pyridin-4-ylpyrazolo[1,5-a]pyrimidin-7-yl]-N,N-dimethyl-8-azabicyclo[3.2.1]octane-8-carboxamide], the pIC50 was 8.19.

In the case of `COc1cc(-c2c(-c3ccncc3)nn3c(CN4C[C@@H]5C[C@H]4CN5C(=O)OC(C)(C)C)ccnc23)ccc1Cl` [Example 121, tert-butyl (1S,4S)-5-{[3-(4-chloro-3-methoxyphenyl)-2-pyridin-4-ylpyrazolo[1,5-a]pyrimidin-7-yl]methyl}-2,5-diazabicyclo[2.2.1]heptane-2-carboxylate], the pIC50 was less than 7.00.

For the compound `CC(C)(C)OC(=O)N1C[C@@H]2C[C@H]1CN2c1ccc(-c2ccn3nc(-c4ccncc4)c(-c4ccc(F)c5[nH]ncc45)c3n2)cc1` [Example 122, tert-butyl (1S,4S)-5-{4-[3-(7-fluoro-1H-indazol-4-yl)-2-pyridin-4-ylpyrazolo[1,5-a]pyrimidin-5-yl]phenyl}-2,5-diazabicyclo[2.2.1]heptane-2-carboxylate], the pIC50 is 7.72.

On to `c1cc(-c2ccnc3c(-c4cccc5[nH]ncc45)c(-c4ccncc4)nn23)cc(N2C[C@@H]3C[C@H]2CN3)c1` [Example 124, 7-{3-[(1S,4S)-2,5-diazabicyclo[2.2.1]hept-2-yl]phenyl}-3-(1H-indazol-4-yl)-2-pyridin-4-ylpyrazolo[1,5-a]pyrimidine], for which the pIC50 was 7.42.

As for `CC(C)(C)OC(=O)N1C[C@@H]2C[C@H]1CN2c1ccc(-c2ccnc3c(-c4ccc(Cl)c5[nH]ncc45)c(-c4ccncc4)nn23)cc1` [Example 125, tert-butyl (1S,4S)-5-{4-[3-(7-chloro-1H-indazol-4-yl)-2-pyridin-4-ylpyrazolo[1,5-a]pyrimidin-7-yl]phenyl}-2,5-diazabicyclo[2.2.1]heptane-2-carboxylate], the pIC50 is 7.35.

As to `CN1C[C@@H]2C[C@H]1CN2c1cccc(-c2ccnc3c(-c4cccc5[nH]ncc45)c(-c4ccncc4)nn23)c1` [Example 126, 3-(1H-indazol-4-yl)-7-{3-[(1S,4S)-5-methyl-2,5-diazabicyclo[2.2.1]hept-2-yl]phenyl}-2-pyridin-4-ylpyrazolo[1,5-a]pyrimidine], the pIC50 was 7.21.

As to `Clc1ccc(-c2c(-c3ccncc3)nn3c(-c4ccc(N5C[C@@H]6C[C@H]5CN6)cc4)ccnc23)c2cn[nH]c12` [Example 127, 3-(7-chloro-1H-indazol-4-yl)-7-{4-[(1S,4S)-2,5-diazabicyclo[2.2.1]hept-2-yl]phenyl}-2-pyridin-4-ylpyrazolo[1,5-a]pyrimidine], the pIC50 was 7.50.

As to `CC(C)(C)OC(=O)N1CCC[C@H]1C(=O)N1C2CCC1CC(c1ccnc3c(-c4cccc5[nH]ncc45)c(-c4ccncc4)nn13)C2` (stereo partly drawn) [Example 128, tert-butyl (2S)-2-({3-[3-(1H-indazol-4-yl)-2-pyridin-4-ylpyrazolo[1,5-a]pyrimidin-7-yl]-8-azabicyclo[3.2.1]oct-8-yl}carbonyl)pyrrolidine-1-carboxylate], the pIC50 was 7.40.

Take `O=C([C@@H]1CCCN1)N1C2CCC1CC(c1ccnc3c(-c4cccc5[nH]ncc45)c(-c4ccncc4)nn13)C2` (stereo partly drawn) [Example 129, 3-(1H-indazol-4-yl)-7-(8-L-prolyl-8-azabicyclo[3.2.1]oct-3-yl)-2-pyridin-4-ylpyrazolo[1,5-a]pyrimidine]: the pIC50 was 8.68.

For `CC(=O)CN1C2CCC1CC(c1ccnc3c(-c4cccc5[nH]ncc45)c(-c4ccncc4)nn13)C2` (stereo not drawn) [Example 130, 1-{3-[3-(1H-indazol-4-yl)-2-pyridin-4-ylpyrazolo[1,5-a]pyrimidin-7-yl]-8-azabicyclo[3.2.1]oct-8-yl}propan-2-one], the pIC50 is 7.12.

Take `CCOC(=O)N1C2CCC1CC(c1ccn3nc(-c4ccncc4)c(-c4ccc(F)c5[nH]ncc45)c3n1)C2` (stereo not drawn) [Example 131, ethyl 3-[3-(7-fluoro-1H-indazol-4-yl)-2-pyridin-4-ylpyrazolo[1,5-a]pyrimidin-5-yl]-8-azabicyclo[3.2.1]octane-8-carboxylate]: the pIC50 is 9.00.

For `COc1cccc(-c2c(-c3ccncc3)nn3c(-c4ccc(N5C[C@@H]6C[C@H]5CN6)cc4F)ccnc23)c1` [Example 132, 7-{4-[(1S,4S)-2,5-diazabicyclo[2.2.1]hept-2-yl]-2-fluorophenyl}-3-(3-methoxyphenyl)-2-pyridin-4-ylpyrazolo[1,5-a]pyrimidine], the pIC50 is 9.40.

On to `Oc1cccc(-c2c(-c3ccncc3)nn3c(-c4ccc(N5C[C@@H]6C[C@H]5CN6)cc4F)ccnc23)c1` [Example 133, 3-(7-{4-[(1S,4S)-2,5-diazabicyclo[2.2.1]hept-2-yl]-2-fluorophenyl}-2-pyridin-4-ylpyrazolo[1,5-a]pyrimidin-3-yl)phenol], for which the pIC50 is more than 9.52.

`CN1C[C@@H]2C[C@H]1CN2c1ccc(-c2ccnc3c(-c4cccc(O)c4)c(-c4ccncc4)nn23)c(F)c1` [Example 134, 3-(7-{2-fluoro-4-[(1S,4S)-5-methyl-2,5-diazabicyclo[2.2.1]hept-2-yl]phenyl}-2-pyridin-4-ylpyrazolo[1,5-a]pyrimidin-3-yl)phenol]: the pIC50 was more than 9.52.

For `Cc1cc(N2C[C@@H]3C[C@H]2CN3)ccc1-c1ccnc2c(-c3ccc(F)c4[nH]ncc34)c(-c3ccncc3)nn12` [Example 135, 7-{4-[(1S,4S)-2,5-diazabicyclo[2.2.1]hept-2-yl]-2-methylphenyl}-3-(7-fluoro-1H-indazol-4-yl)-2-pyridin-4-ylpyrazolo[1,5-a]pyrimidine], the pIC50 is more than 9.52.

Consider `Cc1cc(N2C[C@@H]3C[C@H]2CN3C)ccc1-c1ccnc2c(-c3ccc(F)c4[nH]ncc34)c(-c3ccncc3)nn12` [Example 136, 3-(7-fluoro-1H-indazol-4-yl)-7-{2-methyl-4-[(1S,4S)-5-methyl-2,5-diazabicyclo[2.2.1]hept-2-yl]phenyl}-2-pyridin-4-ylpyrazolo[1,5-a]pyrimidine], for which the pIC50 was more than 9.52.

In the case of `Fc1ccc(-c2c(-c3ccncc3)nn3c(C4CC5CCC(C4)N5)ccnc23)c2cn[nH]c12` (stereo not drawn) [Example 137, 7-(8-azabicyclo[3.2.1]oct-3-yl)-3-(7-fluoro-1H-indazol-4-yl)-2-pyridin-4-ylpyrazolo[1,5-a]pyrimidine], the pIC50 is 8.42.

For `N#CCN1C2CCC1CC(c1ccnc3c(-c4ccc(F)c5[nH]ncc45)c(-c4ccncc4)nn13)C2` (stereo not drawn) [Example 138, {3-[3-(7-fluoro-1H-indazol-4-yl)-2-pyridin-4-ylpyrazolo[1,5-a]pyrimidin-7-yl]-8-azabicyclo[3.2.1]oct-8-yl}acetonitrile], the pIC50 is 9.40.

Consider `Clc1ccc(-c2c(-c3ccncc3)nn3ccc(-c4ccc(N5C[C@@H]6C[C@H]5CN6)cc4)nc23)c2cn[nH]c12` [Example 139, 3-(7-chloro-1H-indazol-4-yl)-5-{4-[(1S,4S)-2,5-diazabicyclo[2.2.1]hept-2-yl]phenyl}-2-pyridin-4-ylpyrazolo[1,5-a]pyrimidine], for which the negative-log IC50 (pIC50) is 8.92.

Values taken from patent US20100029657A1, “Bridged, Bicyclic Heterocyclic or Spiro Bicyclic Heterocyclic Derivatives of Pyrazolo[1, 5-A]Pyrimidines, Methods for Preparation and Uses Thereof” (Wyeth, priority 2008, published 2010).
